# Measured values taken from patent publication US8269015B2, “4-azetidinyl-1-heteroaryl-cyclohexane antagonists of CCR2” (Janssen Pharmaceutica N.V., priority 2009, dated 2012).
# pIC50: −log10 of the molar value.
# Target: T1, CCR2 (Homo sapiens, UniProt P41597)
# T1 construct: host or cells: THP-1 (human monocytic cell line)
# T1 sequence (P41597 1-360 isoform P41597-2): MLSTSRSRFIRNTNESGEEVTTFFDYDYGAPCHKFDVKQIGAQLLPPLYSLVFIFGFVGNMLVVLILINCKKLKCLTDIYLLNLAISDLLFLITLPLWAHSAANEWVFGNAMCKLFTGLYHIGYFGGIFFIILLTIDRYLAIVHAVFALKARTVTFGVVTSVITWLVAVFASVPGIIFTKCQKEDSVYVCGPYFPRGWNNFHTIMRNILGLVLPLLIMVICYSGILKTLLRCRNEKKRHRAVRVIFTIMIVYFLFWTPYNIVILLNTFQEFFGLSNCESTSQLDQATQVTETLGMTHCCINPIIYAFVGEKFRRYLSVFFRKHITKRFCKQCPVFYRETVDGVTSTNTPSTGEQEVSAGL
# Experiment: MCP-1 Receptor Binding Assay in THP-1 Cells (125I labeled MCP-1)
# Conditions: 0.5 nM 125I labeled MCP-1, 2 hours at 30° C., read-out: Inhibition of MCP-1 Binding IC50, CCR2 Binding
# Procedure: Compounds of the invention were subjected to various representative biological tests. […] MCP-1 Receptor Binding Assay in THP-1 Cells
# Human monocytic cell line THP-1 cells were obtained from American Type Culture Collection (Manassas, Va., USA). […] The cell density was maintained […].
# 1 μM cold MCP-1 was used for nonspecific binding.
row,Compound,pIC50
1,"COc1ccc(C2CCC(N3CC(NC(=O)CNC(=O)c4cccc(C(F)(F)F)c4)C3)CC2)cn1 (single isomer, unassigned) [Example 1a, N-({1-[4-(6-Methoxy-pyridin-3-yl)-cyclohexyl]-azetidin-3-ylcarbamoyl}-methyl)-3-trifluoromethyl-benzamide]",8.15
2,"Nc1cccc(C2CCC(N3CC(NC(=O)CNC(=O)c4cccc(C(F)(F)F)c4)C3)CC2)n1 (single isomer, unassigned) [Example 22a, N-({1-[4-(6-Amino-pyridin-2-yl)-cyclohexyl]-azetidin-3-ylcarbamoyl}-methyl)-3-trifluoromethyl-benzamide]",7.60
3,"CNc1cccc(C2CCC(N3CC(NC(=O)CNC(=O)c4cccc(C(F)(F)F)c4)C3)CC2)n1 (single isomer, unassigned) [Example 23a, N-({1-[4-(6-Methylamino-pyridin-2-yl)-cyclohexyl]-azetidin-3-ylcarbamoyl}-methyl)-3-trifluoromethyl-benzamide]",7.14
4,"Nc1ccncc1C1CCC(N2CC(NC(=O)CNC(=O)c3cccc(C(F)(F)F)c3)C2)CC1 (single isomer, unassigned) [Example 27a, N-({1-[4-(4-Amino-pyridin-3-yl)-cyclohexyl]-azetidin-3-ylcarbamoyl}-methyl)-3-trifluoromethyl-benzamide]",5.57
5,"Nc1ccc(C2CCC(N3CC(NC(=O)CNC(=O)c4cccc(C(F)(F)F)c4)C3)CC2)cn1 (single isomer, unassigned) [Example 30a, N-({1-[4-(6-Amino-pyridin-3-yl)-cyclohexyl]-azetidin-3-ylcarbamoyl}-methyl)-3-trifluoromethyl-benzamide]",6.72
6,"Nc1ncccc1C1CCC(N2CC(NC(=O)CNC(=O)c3cccc(C(F)(F)F)c3)C2)CC1 (single isomer, unassigned) [Example 31a, N-({1-[4-(2-Amino-pyridin-3-yl)-cyclohexyl]-azetidin-3-ylcarbamoyl}-methyl)-3-trifluoromethyl-benzamide]",6.82
7,"O=C(CNC(=O)c1cccc(C(F)(F)F)c1)NC1CN(C2CCC(c3ccc(=O)[nH]c3)CC2)C1 (single isomer, unassigned) [Example 37a, N-({1-[4-(6-Oxo-1,6-dihydro-pyridin-3-yl)-cyclohexyl]-azetidin-3-ylcarbamoyl}-methyl)-3-trifluoromethyl-benzamide]",6.77
8,"Cn1cc(C2CCC(N3CC(NC(=O)CNC(=O)c4cccc(C(F)(F)F)c4)C3)CC2)ccc1=O (single isomer, unassigned) [Example 38a, N-({1-[4-(1-Methyl-6-oxo-1,6-dihydro-pyridin-3-yl)-cyclohexyl]-azetidin-3-ylcarbamoyl}-methyl)-3-trifluoromethyl-benzamide]",7.34
9,"CC(C)n1cc(C2CCC(N3CC(NC(=O)CNC(=O)c4cccc(C(F)(F)F)c4)C3)CC2)ccc1=O (single isomer, unassigned) [Example 40a, N-({1-[4-(1-Isopropyl-6-oxo-1,6-dihydro-pyridin-3-yl)-cyclohexyl]-azetidin-3-ylcarbamoyl}-methyl)-3-trifluoromethyl-benzamide]",6.48
10,"O=C(CNC(=O)c1cccc(C(F)(F)F)c1)NC1CN(C2CCC(c3ccc(=O)n(CC(F)(F)F)c3)CC2)C1 (single isomer, unassigned) [Example 42a, N-[(1-{4-[6-Oxo-1-(2,2,2-trifluoro-ethyl)-1,6-dihydro-pyridin-3-yl]-cyclohexyl}-azetidin-3-ylcarbamoyl)-methyl]-3-trifluoromethyl-benzamide]",6.82
11,"Cc1cc(C2CCC(N3CC(NC(=O)CNC(=O)c4cccc(C(F)(F)F)c4)C3)CC2)c[nH]c1=O (single isomer, unassigned) [Example 44a, N-({1-[4-(5-Methyl-6-oxo-1,6-dihydro-pyridin-3-yl)-cyclohexyl]-azetidin-3-ylcarbamoyl}-methyl)-3-trifluoromethyl-benzamide]",6.60

# Now from value to compound:
row,pIC50,Compound
1,6.40,"O=C(CNC(=O)c1cccc(C(F)(F)F)c1)NC1CN(C2CCC(c3noc(N4CCCC4)n3)CC2)C1 (mixture of isomers) [Example 59, N-({1-[4-(5-Pyrrolidin-1-yl-[1,2,4]oxadiazol-3-yl)-cyclohexyl]-azetidin-3-ylcarbamoyl}-methyl)-3-trifluoromethyl-benzamide]"
2,5.41,"Cc1cc(=O)[nH]c(C2CCC(N3CC(NC(=O)CNC(=O)c4cccc(C(F)(F)F)c4)C3)CC2)n1 (mixture of isomers) [Example 60, N-({1-[4-(4-Methyl-6-oxo-1,6-dihydro-pyrimidin-2-yl)-cyclohexyl]-azetidin-3-ylcarbamoyl}-methyl)-3-trifluoromethyl-benzamide]"
3,5.40,"O=C(CNC(=O)c1cccc(C(F)(F)F)c1)NC1CN(C2CCC(c3nc4c(c(=O)[nH]3)CCCC4)CC2)C1 (mixture of isomers) [Example 61, N-({1-[4-(4-Oxo-3,4,5,6,7,8-hexahydro-quinazolin-2-yl)-cyclohexyl]-azetidin-3-ylcarbamoyl}-methyl)-3-trifluoromethyl-benzamide]"
4,6.41,"O=C(CNC(=O)c1cccc(C(F)(F)F)c1)NC1CN(C2CCC(c3nsc(Cl)n3)CC2)C1 (mixture of isomers) [Example 62, N-({1-[4-(5-Chloro-[1,2,4]thiadiazol-3-yl)-cyclohexyl]-azetidin-3-ylcarbamoyl}-methyl)-3-trifluoromethyl-benzamide]"
5,5.82,"O=C(CNC(=O)c1cccc(C(F)(F)F)c1)NC1CN(C2CCC(c3nc4n(n3)CCCC4)CC2)C1 (mixture of isomers) [Example 63, N-({1-[4-(5,6,7,8-Tetrahydro-[1,2,4]-triazolo[1,5-a]pyridin-2-yl)-cyclohexyl]-azetidin-3-ylcarbamoyl}-methyl)-3-trifluoromethyl-benzamide]"
6,7.21,"Cc1cc(C2CCC(N3CC(NC(=O)CNC(=O)c4cccc(C(F)(F)F)c4)C3)CC2)cn(C)c1=O (single isomer, unassigned) [Example 45a, N-({1-[4-(1,5-Dimethyl-6-oxo-1,6-dihydro-pyridin-3-yl)-cyclohexyl]-azetidin-3-ylcarbamoyl}-methyl)-3-trifluoromethyl-benzamide]"
7,6.26,"Cn1ccc(C2CCC(N3CC(NC(=O)CNC(=O)c4cccc(C(F)(F)F)c4)C3)CC2)cc1=O (single isomer, unassigned) [Example 46a, N-({1-[4-(1-Methyl-2-oxo-1,2-dihydro-pyridin-4-yl)-cyclohexyl]-azetidin-3-ylcarbamoyl}-methyl)-3-trifluoromethyl-benzamide]"
8,6.47,"COC(=O)Nc1ncc(C2CCC(N3CC(NC(=O)CNC(=O)c4cccc(C(F)(F)F)c4)C3)CC2)s1 (single isomer, unassigned) [Example 51a, [5-(4-{3-[2-(3-Trifluoromethyl-benzoylamino)-acetylamino]-azetidin-1-yl}-cyclohexyl)-thiazol-2-yl]-carbamic acid methyl ester]"
9,5.55,"O=C(CNC(=O)c1cccc(C(F)(F)F)c1)NC1CN(C2CCC(c3cnc(C(=O)O)s3)CC2)C1 (single isomer, unassigned) [Example 52a, 5-(4-{3-[2-(3-Trifluoromethyl-benzoylamino)-acetylamino]-azetidin-1-yl}-cyclohexyl)-thiazole-2-carboxylic acid]"
